Assay results: PMC11199504, “New hemisynthetic derivatives of sphaeropsidin phytotoxins triggering severe endoplasmic reticulum swelling in cancer cells” (Scientific Reports, 2024)
Read-outs that look alike come from different tables or passages of the source.

Experiments:
[1] = tested on: A549; assay: MTT colorimetric assay, A549; format: cell-based; settings: Homo sapiens, 72 h treatment, mean ± SEM of six replicates of one experiment (1: 7, 13: 6 independent experiments), resistant to apoptosis, read-out: IC50 determined by MTT assays, A549
Excerpt: (§1) Cancer cell lines were obtained from either the European Collection of Cell Cultures (ECACC; Salisbury, UK) or the American Type Culture Collection (ATCC; Manassas, VA). The two glioma cell lines were the U373 (ECACC code 08061901) and Hs683 (ATCC HTB-138) cell lines. The carcinoma cell lines were the A549 non-small cell carcinoma cell line (ATCC code CCL 185) and the MCF-7 mammary breast carcinoma cell line (ATCC code HTB-22). The melanoma cell lines were the mouse B16F10 cells (ATCC code CRL-6475) and the human SKMEL-28 cells (ATCC code HTB-72). The ovarian cancer cell line A2780 and its cisplatin-resistant subline A2780cis were obtained from Sigma-Aldrich (St. Louis, MO, USA). Colon cancer HCT116 cells were obtained from ATCC (CCL-247) and the oxaliplatin-resistant subline HCT116/OxR established in the W. Berger lab[59]. The HeLa cell derivative KB-3-1 and the colchicine-selected, highly ABCB1-overexpressing subline KB-C-1 were generously donated by Dr. D. W. Shen, Bethesda, MD. RKOp53wt colon cancer cells together with the RKOp53KO (homozygous knock-out) subline[60] were generously provided by Dr. Vogelstein from John Hopkins University, Baltimore. The correct origin of all cell models was confirmed by STR during performance of the experiments. All cell lines were cultured in RPMI1640 culture medium supplemented with 10% heat-inactivated fetal bovine serum, 2% L-glutamine (0.6 mg/mL), 2% penicillin/streptomycin (200 IU/mL and 200 μg/mL) and 0.1 mg/mL gentamicin.
(§2) The MTT (3-(4,5-dimethylthiazol-2-yl)-2,5-diphenyl tetrazolium bromide) colorimetric assay has been conducted as described previously. Briefly, cells were seeded 24 h before their treatment with each compound for a period of 72 h. The concentrations tested ranged from 10 nM to 100 µM. Each assay was conducted in sextuplicates. The number of independent experiments is mentioned in the legend of the tables.

[2] = tested on: SKMEL-28; assay: MTT colorimetric assay, SKMEL-28; format: cell-based; settings: Homo sapiens, SK-MEL-28; 72 h treatment; mean ± SEM; resistant to apoptosis; read-out: IC50 determined by MTT assays, SKMEL-28
Excerpt: as §1, §2

[3] = tested on: U373; assay: MTT colorimetric assay, U373; format: cell-based; settings: Homo sapiens, U373 MG; 72 h treatment; mean ± SEM; resistant to apoptosis; read-out: IC50 determined by MTT assays, U373
Excerpt: as §1, §2

[4] = tested on: MCF7; assay: MTT colorimetric assay, MCF7; format: cell-based; settings: Homo sapiens, 72 h treatment, mean ± SEM, sensitive to apoptosis, read-out: IC50 determined by MTT assays, MCF7
Excerpt: as §1, §2

[5] = tested on: Hs683; assay: MTT colorimetric assay, Hs683; format: cell-based; settings: Homo sapiens, Hs 683; 72 h treatment; mean ± SEM; sensitive to apoptosis; read-out: IC50 determined by MTT assays, Hs683
Excerpt: as §1, §2

[6] = tested on: B16F10; assay: MTT colorimetric assay, B16F10; format: cell-based; settings: Mus musculus, B16-F10; 72 h treatment; mean ± SEM; sensitive to apoptosis; read-out: IC50 determined by MTT assays, B16F10
Excerpt: as §1, §2

[7] = tested on: A549, SKMEL-28, U373, MCF7, Hs683, B16F10; assay: MTT colorimetric assay, mean of the six cell lines; format: cell-based; settings: for IC50: mean over the six cell lines, 72 h treatment, read-out: IC50 determined by MTT assays, Mean
Excerpt: as §1, §2

[8] = tested on: A2780; assay: MTT assay, A2780 (parental sensitive); format: cell-based; settings: Homo sapiens, A2780, 72 h, read-out: IC50 determined by MTT assays, A2780
Excerpt: as §1, §2
(§3) SI Table 1: IC50 determined by MTT assays. Mean concentration (± standard deviation) in µM required to
(§4) reduce the viability of cells by 50% after a 72 h treatment relative to the control.
(§5) Parental sensitive models Drug-resistant models

[9] = tested on: Hct116; assay: MTT assay, Hct116 (parental sensitive); format: cell-based; settings: Homo sapiens, HCT-116, 72 h, read-out: IC50 determined by MTT assays, Hct116
Excerpt: as §1, §2, §3, §4, §5

[10] = tested on: RKO/P53wt; assay: MTT assay, RKO/P53wt (parental sensitive); format: cell-based; settings: 72 h, read-out: IC50 determined by MTT assays, RKO/P53wt
Excerpt: as §1, §2, §3, §4, §5

[11] = tested on: KB-3-1; assay: MTT assay, KB-3-1 (parental sensitive); format: cell-based; settings: Homo sapiens, KB 3-1, 72 h, read-out: IC50 determined by MTT assays, KB-3-1
Excerpt: as §1, §2, §3, §4, §5

[12] = tested on: Parental sensitive models; assay: MTT assay, mean of parental sensitive models; format: cell-based; settings: 72 h, read-out: IC50 determined by MTT assays, mean of parental sensitive models
Excerpt: as §1, §2, §3, §4, §5

[13] = tested on: A2780R; assay: MTT assay, A2780R (cisplatin-resistant); format: cell-based; settings: 72 h, read-out: IC50 determined by MTT assays, A2780R
Excerpt: as §1, §2, §3, §4, §5

[14] = tested on: KB-C-1; assay: MTT assay, KB-C-1 (ABCB1-overexpressing); format: cell-based; settings: KBC-1, 72 h, read-out: IC50 determined by MTT assays, KB-C-1
Excerpt: as §1, §2, §3, §4, §5

[15] = tested on: Drug-resistant models; assay: MTT assay, mean of drug-resistant models; format: cell-based; settings: 72 h, read-out: IC50 determined by MTT assays, mean of drug-resistant models
Excerpt: as §1, §2, §3, §4, §5

[16] = target: T1, human TopIIa (Homo sapiens, UniProt P11388); assay: Cell-free decatenation assay; format: biochemical
T1 construct: purchased TopoGen (Port Orange, FL, USA)
T1 sequence (P11388 whole entry): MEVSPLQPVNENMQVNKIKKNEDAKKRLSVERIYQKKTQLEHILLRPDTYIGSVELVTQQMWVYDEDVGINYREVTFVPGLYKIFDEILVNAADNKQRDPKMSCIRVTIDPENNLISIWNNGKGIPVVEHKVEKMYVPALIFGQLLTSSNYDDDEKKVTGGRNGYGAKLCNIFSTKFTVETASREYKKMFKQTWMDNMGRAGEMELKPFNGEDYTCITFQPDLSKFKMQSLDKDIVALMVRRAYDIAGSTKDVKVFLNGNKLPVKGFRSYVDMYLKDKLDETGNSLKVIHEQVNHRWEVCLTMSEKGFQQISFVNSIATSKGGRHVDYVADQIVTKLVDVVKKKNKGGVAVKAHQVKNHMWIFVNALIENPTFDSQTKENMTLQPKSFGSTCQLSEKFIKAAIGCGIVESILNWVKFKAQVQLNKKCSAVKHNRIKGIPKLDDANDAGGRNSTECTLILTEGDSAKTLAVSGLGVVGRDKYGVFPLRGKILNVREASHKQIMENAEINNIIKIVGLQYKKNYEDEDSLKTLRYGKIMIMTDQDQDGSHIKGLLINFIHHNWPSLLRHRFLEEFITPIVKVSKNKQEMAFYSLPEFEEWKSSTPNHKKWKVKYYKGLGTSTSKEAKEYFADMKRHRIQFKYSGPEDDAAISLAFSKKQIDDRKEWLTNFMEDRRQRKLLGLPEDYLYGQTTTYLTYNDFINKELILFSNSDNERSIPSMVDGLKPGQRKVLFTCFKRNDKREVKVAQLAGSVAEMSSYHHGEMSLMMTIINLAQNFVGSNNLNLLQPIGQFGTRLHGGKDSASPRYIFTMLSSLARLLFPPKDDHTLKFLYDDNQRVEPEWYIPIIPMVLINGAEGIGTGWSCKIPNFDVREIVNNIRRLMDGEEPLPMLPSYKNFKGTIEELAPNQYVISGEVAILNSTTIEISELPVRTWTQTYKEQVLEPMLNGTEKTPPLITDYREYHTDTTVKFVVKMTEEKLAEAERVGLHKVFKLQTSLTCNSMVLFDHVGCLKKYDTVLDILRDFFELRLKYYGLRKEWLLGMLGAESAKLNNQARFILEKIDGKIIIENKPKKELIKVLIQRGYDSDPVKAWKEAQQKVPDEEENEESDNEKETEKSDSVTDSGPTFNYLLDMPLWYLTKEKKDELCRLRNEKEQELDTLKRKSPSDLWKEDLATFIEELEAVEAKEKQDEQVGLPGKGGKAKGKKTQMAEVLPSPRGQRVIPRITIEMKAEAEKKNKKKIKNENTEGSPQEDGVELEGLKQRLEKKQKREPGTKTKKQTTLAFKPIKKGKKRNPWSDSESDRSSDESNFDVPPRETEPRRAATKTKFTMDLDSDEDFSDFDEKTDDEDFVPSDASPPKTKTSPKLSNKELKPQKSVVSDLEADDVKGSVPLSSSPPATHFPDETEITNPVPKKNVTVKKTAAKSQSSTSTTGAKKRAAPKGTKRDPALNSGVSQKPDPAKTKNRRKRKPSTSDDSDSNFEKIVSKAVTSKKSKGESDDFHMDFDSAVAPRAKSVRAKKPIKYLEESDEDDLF
Experimental: The topoisomerase (Top) activity assay kit, including kinetoplast DNA (kDNA and recombinant human TopIIa enzyme, was obtained from TopoGen (Port Orange, FL, USA), agarose from PeqLab (Erlangen, Germany), 50 × TAE buffer from Roth (Karlsruhe, Germany) and ethidium bromide solution (10 mg/mL) from Sigma-Aldrich (Taufkirchen, Germany). Decatenation assays were performed as described previously[62] with slight modifications according to the manufacturer’s protocol. 100 µM of the recently described dual topoisomerase poison P8-D6 served as a positive control, and 5% DMSO as a solvent control. Briefly, the compounds were dissolved in DMSO and diluted to 20× the concentration to be tested. 1 µL of the resulting stock solutions were mixed with 18 µL of a buffer containing 200 ng kDNA and 1 mM ATP. Subsequently, 1 µL of a 1u/µL dilution of TopIIa enzyme was added and incubated at 37 °C for 30 min. Afterwards, the reaction was stopped by addition of Stop buffer, and electrophoresis was carried out on a 1% agarose gel in TAE buffer. The gel was stained with 0.5 µg/mL ethidium bromide, washed with water, and fluorescence images were captured with the LAS4000 system (Fujifilm, Duesseldorf, Germany). All steps were carried out on ice.

SMILES | IC50 [1] [nM] | IC50 [2] [nM] | IC50 [3] [nM] | IC50 [4] [nM] | IC50 [5] [nM] | IC50 [6] [nM] | IC50 ([7]; 72 h) [nM] | IC50 fold lower than compound 1 ([7]; cancer cell panel, MTT) | IC50 [7] [nM] | IC50 [8] [nM] | IC50 [9] [nM] | IC50 [10] [nM] | IC50 [11] [nM] | IC50 [12] [nM] | IC50 [13] [nM] | IC50 [14] [nM] | IC50 [15] [nM] | concentration from which TopIIa inhibition trend was observed [16] [µM] | concentration significantly different from the solvent control (TopIIa inhibition) [16] [µM] | inhibition at 500 µM ([16]; at 500 µM, read-out: TopoIIa inhibition) [%]
CC1(C=CCCCc2ccc3ccc4cccc5ccc2c3c45)C=C2C(=O)C3(O)OC(=O)C4(CCCC(C)(C)C34)C2(O)CC1 (stereo not drawn) [Compound 13] | 380 ± 30 | 310 ± 10 | 570 ± 80 | 300 ± 20 | 350 ± 20 | 290 ± 10 | 300 | 5–10 times | 370 ± 40 | 1600 ± 20 | 1000 ± 100 | 1100 | 1900 ± 50 | 1000 | 1600 ± 90 | 3200 ± 600 | 2000 | ≥ 1 | ≥ 1 | –
CC1(C=CCCCc2ccc3ccc4cccc5ccc2c3c45)C=C2C(O)C3(O)OC(=O)C4(CCCC(C)(C)C34)C2(O)CC1 (stereo not drawn) [Compound 16] | 6610 ± 80 | 7240 ± 70 | 8880 ± 190 | 5980 ± 190 | 7340 ± 200 | 5110 ± 420 | 6860 ± 530 | – | – | 7700 ± 900 | 7100 ± 200 | 5600 ± 200 | 13800 ± 1400 | 8000 | 8300 ± 300 | 15200 ± 1300 | 9000 | ≥ 1 | – | –
C=C[C@]1(C)C=C2C(=O)[C@@]3(O)OC(=O)[C@@]4(CCCC(C)(C)[C@H]34)[C@@]2(O)CC1 [Compound 1, sphaeropsidin A, reference compound] | 1710 ± 260 | 2320 ± 150 | 2130 ± 170 | 2410 ± 350 | 2310 ± 230 | 1550 ± 270 | 2070 ± 150 | – | – | 2400 ± 500 | 3400 ± 500 | 1900 ± 300 | 5400 ± 1000 | 3000 | 2400 ± 100 | 8100 ± 700 | 4000 | – | – | ~50
